Conditions: Liquid, Hot wire method

FC(F)(F)/C=C/Cl [(E)-1-chloro-3,3,3-trifluoroprop-1-ene]
Conditions | thermal conductivity [W/m/K]
263.11 K, 10284 kPa | 0.09779
263.11 K, 15941 kPa | 0.1
263.12 K, 275 kPa | 0.09368
263.12 K, 5037 kPa | 0.09578
263.3 K, 65213 kPa | 0.1155
263.31 K, 42853 kPa | 0.1092
263.34 K, 36413 kPa | 0.1071
263.35 K, 59142 kPa | 0.1143
263.39 K, 51112 kPa | 0.1115
263.4 K, 29224 kPa | 0.1049
263.45 K, 22281 kPa | 0.1026
263.48 K, 65190 kPa | 0.115
263.49 K, 15926 kPa | 0.1002
263.5 K, 10264 kPa | 0.0981
263.5 K, 42848 kPa | 0.1085
263.52 K, 5059 kPa | 0.09603
263.53 K, 267 kPa | 0.09392
263.53 K, 36413 kPa | 0.1068
263.54 K, 59138 kPa | 0.1137
263.58 K, 51103 kPa | 0.1112
263.59 K, 29225 kPa | 0.1044
263.64 K, 22275 kPa | 0.1022
263.7 K, 15944 kPa | 0.09988
263.71 K, 10281 kPa | 0.09774
263.73 K, 5041 kPa | 0.09557
263.75 K, 278 kPa | 0.09344
263.84 K, 65191 kPa | 0.1154
263.88 K, 42851 kPa | 0.1087
263.91 K, 36412 kPa | 0.1071
263.95 K, 51092 kPa | 0.1113
263.98 K, 29226 kPa | 0.1045
264.05 K, 65174 kPa | 0.1149
264.1 K, 42852 kPa | 0.1085
264.11 K, 59122 kPa | 0.1132
264.13 K, 36411 kPa | 0.1066
264.17 K, 51091 kPa | 0.1108
264.21 K, 29227 kPa | 0.1042
281.25 K, 20968 kPa | 0.09541
281.29 K, 10961 kPa | 0.09337
281.3 K, 3101 kPa | 0.08933
281.3 K, 6243 kPa | 0.09051
281.31 K, 203 kPa | 0.08831
281.31 K, 16036 kPa | 0.09555
281.32 K, 20959 kPa | 0.09554
281.36 K, 10962 kPa | 0.09248
281.38 K, 3093 kPa | 0.0889
281.38 K, 6225 kPa | 0.09019
281.39 K, 193 kPa | 0.08772
281.61 K, 39518 kPa | 0.1031
281.62 K, 46215 kPa | 0.1057
281.62 K, 55364 kPa | 0.1084
281.64 K, 16024 kPa | 0.09394
281.64 K, 33249 kPa | 0.1009
281.64 K, 64739 kPa | 0.1107
281.65 K, 20972 kPa | 0.09689
281.65 K, 27078 kPa | 0.0987
281.7 K, 10959 kPa | 0.09251
281.71 K, 39517 kPa | 0.103
281.71 K, 55366 kPa | 0.1082
281.72 K, 6236 kPa | 0.09039
281.72 K, 46217 kPa | 0.1053
281.73 K, 3096 kPa | 0.08936
281.73 K, 33252 kPa | 0.1011
281.73 K, 64721 kPa | 0.1106
281.74 K, 201 kPa | 0.08787
281.75 K, 16022 kPa | 0.09421
281.75 K, 20962 kPa | 0.09616
281.75 K, 27071 kPa | 0.09865
281.8 K, 10956 kPa | 0.0923
281.83 K, 6219 kPa | 0.09017
281.85 K, 185 kPa | 0.08733
281.85 K, 3101 kPa | 0.08903
282.03 K, 55362 kPa | 0.1085
282.04 K, 64705 kPa | 0.1107
282.05 K, 39515 kPa | 0.1034
282.05 K, 46209 kPa | 0.1055
282.08 K, 33242 kPa | 0.1012
282.1 K, 27075 kPa | 0.09876
282.11 K, 16012 kPa | 0.09449
282.11 K, 20964 kPa | 0.09638
282.15 K, 46205 kPa | 0.1054
282.15 K, 55358 kPa | 0.108
282.15 K, 64700 kPa | 0.1104
282.16 K, 39512 kPa | 0.103
282.18 K, 10959 kPa | 0.09237
282.2 K, 33255 kPa | 0.101
282.21 K, 6234 kPa | 0.09065
282.22 K, 3104 kPa | 0.08891
282.23 K, 27070 kPa | 0.09861
282.24 K, 198 kPa | 0.08741
282.24 K, 16024 kPa | 0.0943
282.24 K, 20959 kPa | 0.09631
282.31 K, 10962 kPa | 0.09207
282.35 K, 6225 kPa | 0.09024
282.37 K, 3126 kPa | 0.08877
282.38 K, 188 kPa | 0.08744
282.5 K, 55349 kPa | 0.108
282.5 K, 64686 kPa | 0.1105
282.52 K, 39509 kPa | 0.103
282.52 K, 46199 kPa | 0.1053
282.57 K, 33243 kPa | 0.101
282.6 K, 27082 kPa | 0.09879
282.62 K, 16026 kPa | 0.09446
282.62 K, 20964 kPa | 0.09651
282.63 K, 64675 kPa | 0.1105
282.64 K, 55348 kPa | 0.1078
282.67 K, 39508 kPa | 0.103
282.67 K, 46193 kPa | 0.105
282.71 K, 10958 kPa | 0.09238
282.73 K, 33247 kPa | 0.1009
282.75 K, 6236 kPa | 0.09029
282.75 K, 27089 kPa | 0.09858
282.78 K, 3125 kPa | 0.08898
282.78 K, 20962 kPa | 0.09627
282.79 K, 16015 kPa | 0.09427
282.8 K, 194 kPa | 0.08765
282.88 K, 10957 kPa | 0.09201
282.92 K, 6218 kPa | 0.09006
282.95 K, 3110 kPa | 0.08875
282.97 K, 194 kPa | 0.08733
282.99 K, 64664 kPa | 0.1105
283 K, 55335 kPa | 0.1078
283.04 K, 46194 kPa | 0.1053
283.06 K, 39510 kPa | 0.1032
283.12 K, 33245 kPa | 0.1008
283.15 K, 64649 kPa | 0.1103
283.16 K, 27095 kPa | 0.09871
283.18 K, 20963 kPa | 0.09653
283.18 K, 55341 kPa | 0.1078
283.21 K, 16028 kPa | 0.09435
283.21 K, 46185 kPa | 0.105
283.24 K, 39508 kPa | 0.103
283.29 K, 10953 kPa | 0.09216
283.29 K, 33245 kPa | 0.1006
283.34 K, 27084 kPa | 0.09839
283.35 K, 6234 kPa | 0.09024
283.38 K, 3103 kPa | 0.08892
283.38 K, 20960 kPa | 0.09617
283.39 K, 16020 kPa | 0.09411
283.42 K, 178 kPa | 0.08755
283.5 K, 10953 kPa | 0.09198
283.54 K, 64641 kPa | 0.1105
283.55 K, 6234 kPa | 0.08992
283.57 K, 55328 kPa | 0.108
283.59 K, 3103 kPa | 0.08855
